This note sets out measurements from patent US20220220128A1, “HETEROCYCLIC COMPOUNDS AS KINASE INHIBITORS, COMPOSITIONS COMPRISING THE HETEROCYCLIC COMPOUND, AND METHODS OF USE THEREOF” (JS Innopharm (Shanghai) Ltd, priority 2019, published 2022).

One assay deals with T1, BAF3-KIF5B-RET cells (Homo sapiens, UniProt P07949).
T1 construct: fused on or other part: P33176 (Kinesin-1 heavy chain)
Description: BAF3-KIF5B-RET Cell proliferation assay (CellTiter-Glo, 72 hours). It is filed as cell-based. As to conditions: growth inhibition, read-out: BA/F3-KIF5B-RET Cellular activity. The protocol:
Compounds disclosed herein were tested for the inhibition of RET by a cancer cell proliferation assay commonly known as CellTiter-Glo assay. In this assay, a complete media was prepared by adding 10% fetal bovine serum to RPMI-1640 medium (Life technology) for BAF3-FIF5B-RET cells. BAF3-KIF5B-RET cells were added to each of 88 wells of a 96 well plate at a seeding density of 2,000 cells/well/95 μL. The cells were allowed to attach to the plate by incubating at 37° C. for 24 hours. The compound was dissolved in DMSO (SIGMA). A solution of test compound was prepared in complete media by serial dilution to obtain the following concentrations: 20 μM, 6.67 μM, 2.22 μM, 0.74 μM, 0.25 μM, 0.082 μM, 0.027 μM, 0.0091 μM and 0.0030 μM. The test compound solution (5 μL) was added to each of 80 cell-containing wells. The final concentrations of the compound were following: 1 μM, 0.33 μM, 0.11 μM, 0.037 μM, 0.012 μM, 0.0041 μM, 0.0014 μM, 0.00046 μM and 0.00015 μM. The final concentration of DMSO is 0.1%. To the 8 remaining cell-containing wells, only complete media (containing 0.1% DMSO) was added to form a control group in order to measure maximal proliferation. To the remaining 8 empty wells, complete media was added to for a vehicle control group in order to measure background. The plates were incubated at 37° C. for 72 hours. 50 μl of CellTiter-Glo® Reagent was added to each well. Mix contents for 2 minutes on an orbital shaker to induce cell lysis. Incubate at room temperature for 10 minutes to stabilize luminescent signal. Record luminescence on Paradigm. Cell viability (CV %) was calculated relative to vehicle (DMSO) treated control wells. The IC50 was calculated using GraphPad Prism.

For the next assay, the target named is T2, human RET kinase (Homo sapiens, UniProt P07949).
T2 construct: purchased Carna 08-159
In words: RET Kinase Assay (LanthaScreen TR-FRET enzymatic assay). It is filed as biochemical. To be noted: 7 nM RET, 23 μM ATP. A digest of the protocol: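 Human RET (7 nM) preincubated 15 min with compound in 50 mM HEPES pH 7.5, 0.0015% Brij-35, then reacted with 3 μM FAM-P2 peptide and 23 μM ATP for 1 h at 28° C.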

Some results are limits rather than exact numbers.

T1 sequence (P07949 whole entry, change not shown, the tested form may be a part): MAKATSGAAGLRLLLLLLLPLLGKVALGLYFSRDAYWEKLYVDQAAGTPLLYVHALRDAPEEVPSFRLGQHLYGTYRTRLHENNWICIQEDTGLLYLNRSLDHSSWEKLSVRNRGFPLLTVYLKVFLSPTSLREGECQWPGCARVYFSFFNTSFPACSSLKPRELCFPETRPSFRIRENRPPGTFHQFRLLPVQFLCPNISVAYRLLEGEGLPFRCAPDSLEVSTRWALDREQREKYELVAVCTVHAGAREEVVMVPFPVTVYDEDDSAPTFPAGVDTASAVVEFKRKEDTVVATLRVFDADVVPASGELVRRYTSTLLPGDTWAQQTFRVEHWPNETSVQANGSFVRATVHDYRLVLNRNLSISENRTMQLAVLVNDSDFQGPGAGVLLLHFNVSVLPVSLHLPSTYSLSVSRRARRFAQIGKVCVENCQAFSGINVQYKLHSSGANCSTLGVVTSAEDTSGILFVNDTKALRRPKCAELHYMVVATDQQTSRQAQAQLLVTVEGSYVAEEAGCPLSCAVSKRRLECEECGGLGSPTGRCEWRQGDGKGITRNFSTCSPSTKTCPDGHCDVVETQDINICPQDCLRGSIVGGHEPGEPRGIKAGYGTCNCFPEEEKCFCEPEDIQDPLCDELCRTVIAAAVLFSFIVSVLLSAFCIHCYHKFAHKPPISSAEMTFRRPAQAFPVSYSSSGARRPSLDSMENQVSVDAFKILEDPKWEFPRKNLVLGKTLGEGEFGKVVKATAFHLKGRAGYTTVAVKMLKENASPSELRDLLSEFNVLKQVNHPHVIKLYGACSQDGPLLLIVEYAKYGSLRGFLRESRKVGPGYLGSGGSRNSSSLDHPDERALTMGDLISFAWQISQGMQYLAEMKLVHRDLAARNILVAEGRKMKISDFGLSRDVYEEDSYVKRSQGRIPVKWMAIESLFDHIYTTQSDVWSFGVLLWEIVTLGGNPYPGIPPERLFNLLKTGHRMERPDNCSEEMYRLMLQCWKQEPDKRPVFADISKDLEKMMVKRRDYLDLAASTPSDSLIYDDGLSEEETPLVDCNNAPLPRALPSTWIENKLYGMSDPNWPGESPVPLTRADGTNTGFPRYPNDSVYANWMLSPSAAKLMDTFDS
T2 sequence (P07949 29-1114): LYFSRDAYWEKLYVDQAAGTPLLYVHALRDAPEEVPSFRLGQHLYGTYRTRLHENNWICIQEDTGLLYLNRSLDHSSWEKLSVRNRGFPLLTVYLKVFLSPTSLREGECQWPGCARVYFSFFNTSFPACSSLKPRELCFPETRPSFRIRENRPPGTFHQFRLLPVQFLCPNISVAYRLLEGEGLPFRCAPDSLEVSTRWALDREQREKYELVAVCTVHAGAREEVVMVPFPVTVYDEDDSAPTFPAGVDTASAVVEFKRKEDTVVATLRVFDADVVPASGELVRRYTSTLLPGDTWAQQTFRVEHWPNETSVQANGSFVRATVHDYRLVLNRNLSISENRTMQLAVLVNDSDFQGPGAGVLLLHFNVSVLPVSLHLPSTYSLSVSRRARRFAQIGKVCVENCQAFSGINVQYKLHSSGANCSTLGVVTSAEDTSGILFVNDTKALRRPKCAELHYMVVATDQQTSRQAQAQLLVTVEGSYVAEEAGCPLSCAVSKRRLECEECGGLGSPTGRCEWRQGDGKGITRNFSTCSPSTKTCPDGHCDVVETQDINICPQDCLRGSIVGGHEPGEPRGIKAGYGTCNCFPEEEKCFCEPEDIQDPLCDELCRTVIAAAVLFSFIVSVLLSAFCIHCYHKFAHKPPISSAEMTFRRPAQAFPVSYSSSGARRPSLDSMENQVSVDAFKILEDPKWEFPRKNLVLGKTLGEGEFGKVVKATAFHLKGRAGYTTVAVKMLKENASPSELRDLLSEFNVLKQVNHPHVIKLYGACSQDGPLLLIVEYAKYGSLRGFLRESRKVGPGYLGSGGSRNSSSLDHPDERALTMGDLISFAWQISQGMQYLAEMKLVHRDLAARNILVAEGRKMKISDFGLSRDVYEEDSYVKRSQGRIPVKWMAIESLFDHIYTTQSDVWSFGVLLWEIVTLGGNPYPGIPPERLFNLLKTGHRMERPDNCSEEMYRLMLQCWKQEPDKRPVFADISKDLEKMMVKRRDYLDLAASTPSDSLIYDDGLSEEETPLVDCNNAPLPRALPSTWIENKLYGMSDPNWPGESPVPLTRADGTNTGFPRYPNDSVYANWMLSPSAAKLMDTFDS

As to `COc1ccc(C(=O)N[C@]2(C)C[C@H]3CN(c4cnc(-c5cc(-c6cnn(C)c6)cn6ncc(C#N)c56)cn4)C[C@H]3C2)cn1` [Example 145, N-((3aR,5s,6aS)-2-(5-(3-cyano-6-(1-methyl-1H-pyrazol-4-yl)pyrazolo[1,5-a]pyridin-4-yl)pyrazin-2-yl)-5-methyloctahydrocyclopenta[c]pyrrol-5-yl)-6-methoxynicotinamide], at BAF3-KIF5B-RET cells, the GI50 was at most 10 nM. At human RET kinase, the IC50 is at most 10 nM.
Regarding `COc1cccc(C(=O)N[C@]2(C)C[C@H]3CN(c4cnc(-c5cc(-c6cnn(C)c6)cn6ncc(C#N)c56)cn4)C[C@H]3C2)n1` [Example 146, N-((3aR,5s,6aS)-2-(5-(3-cyano-6-(1-methyl-1H-pyrazol-4-yl)pyrazolo[1,5-a]pyridin-4-yl)pyrazin-2-yl)-5-methyloctahydrocyclopenta[c]pyrrol-5-yl)-6-methoxypicolinamide], the GI50 at BAF3-KIF5B-RET cells is at most 10 nM. The IC50 at human RET kinase was at most 10 nM.
On to `Cn1cc(-c2cc(-c3cnc(N4C[C@@H]5C[C@@](C)(NC(=O)c6ccnc(C(F)(F)F)c6)C[C@@H]5C4)cn3)c3c(C#N)cnn3c2)cn1` [Example 147, N-((3aR,5s,6aS)-2-(5-(3-cyano-6-(1-methyl-1H-pyrazol-4-yl)pyrazolo[1,5-a]pyridin-4-yl)pyrazin-2-yl)-5-methyloctahydrocyclopenta[c]pyrrol-5-yl)-2-(trifluoromethyl)isonicotinamide], for which the GI50 at BAF3-KIF5B-RET cells fell in the range of 10 to 50 nM. For the same molecule, the IC50 at human RET kinase is at most 10 nM.
As for `COc1cncc(C(=O)N[C@]2(C)C[C@H]3CN(c4cnc(-c5cc(-c6cnn(C)c6)cn6ncc(C#N)c56)cn4)C[C@H]3C2)c1` [Example 148, N-((3aR,5s,6aS)-2-(5-(3-cyano-6-(1-methyl-1H-pyrazol-4-yl)pyrazolo[1,5-a]pyridin-4-yl)pyrazin-2-yl)-5-methyloctahydrocyclopenta[c]pyrrol-5-yl)-5-methoxynicotinamide], on BAF3-KIF5B-RET cells, the GI50 was at most 10 nM. The IC50 against human RET kinase was at most 10 nM.
With `COc1ccnc(C(=O)N[C@]2(C)C[C@H]3CN(c4cnc(-c5cc(-c6cnn(C)c6)cn6ncc(C#N)c56)cn4)C[C@H]3C2)c1` [Example 149, N-((3aR,5s,6aS)-2-(5-(3-cyano-6-(1-methyl-1H-pyrazol-4-yl)pyrazolo[1,5-a]pyridin-4-yl)pyrazin-2-yl)-5-methyloctahydrocyclopenta[c]pyrrol-5-yl)-4-methoxypicolinamide], at BAF3-KIF5B-RET cells, the GI50 is at most 10 nM. Also, the IC50 on human RET kinase was at most 10 nM.
Regarding `COc1cc(C(=O)N[C@]2(C)C[C@H]3CN(c4cnc(-c5cc(-c6cnn(C)c6)cn6ncc(C#N)c56)cn4)C[C@H]3C2)ccn1` [Example 150, N-((3aR,5s,6aS)-2-(5-(3-cyano-6-(1-methyl-1H-pyrazol-4-yl)pyrazolo[1,5-a]pyridin-4-yl)pyrazin-2-yl)-5-methyloctahydrocyclopenta[c]pyrrol-5-yl)-2-methoxyisonicotinamide], on BAF3-KIF5B-RET cells, the GI50 is at most 10 nM. Also, at human RET kinase, the IC50 was at most 10 nM.
Consider `COc1cccnc1C(=O)N[C@]1(C)C[C@H]2CN(c3cnc(-c4cc(-c5cnn(C)c5)cn5ncc(C#N)c45)cn3)C[C@H]2C1` [Example 151, N-((3aR,5s,6aS)-2-(5-(3-cyano-6-(1-methyl-1H-pyrazol-4-yl)pyrazolo[1,5-a]pyridin-4-yl)pyrazin-2-yl)-5-methyloctahydrocyclopenta[c]pyrrol-5-yl)-3-methoxypicolinamide], for which the GI50 on BAF3-KIF5B-RET cells is at most 10 nM. This molecule gave an IC50 against human RET kinase of at most 10 nM.
Take `CC(C)(O)COc1cc(-c2cnc(N3C[C@@H]4[C@@H](CNC(=O)c5c(F)cccc5Cl)[C@@H]4C3)cn2)c2c(C#N)cnn2c1` [Example 154, 2-chloro-N-(((1R,5S,6s)-3-(5-(3-cyano-6-(2-hydroxy-2-methylpropoxy)pyrazolo[1,5-a]pyridin-4-yl)pyrazin-2-yl)-3-azabicyclo[3.1.0]hexan-6-yl)methyl)-6-fluorobenzamide]: the GI50 on BAF3-KIF5B-RET cells lay within 10 to 50 nM. This molecule returned an IC50 on human RET kinase of at most 10 nM.
Regarding `COc1ccc(C(=O)NC[C@@H]2[C@H]3CN(c4cnc(-c5cc(OCC(C)(C)O)cn6ncc(C#N)c56)cn4)C[C@@H]23)cn1` [Example 155, N-(((1R,5S,6s)-3-(5-(3-cyano-6-(2-hydroxy-2-methylpropoxy)pyrazolo[1,5-a]pyridin-4-yl)pyrazin-2-yl)-3-azabicyclo[3.1.0]hexan-6-yl)methyl)-6-methoxynicotinamide], at BAF3-KIF5B-RET cells, the GI50 was over 100 nM. The IC50 on human RET kinase is 50 to 100 nM.
The like results for `COc1ccc(C(=O)NC[C@@H]2[C@H]3CN(c4cnc(-c5cc(-c6cnn(C)c6)cn6ncc(C#N)c56)cn4)C[C@@H]23)cn1` [Example 156, N-(((1R,5S,6s)-3-(5-(3-cyano-6-(1-methyl-1H-pyrazol-4-yl)pyrazolo[1,5-a]pyridin-4-yl)pyrazin-2-yl)-3-azabicyclo[3.1.0]hexan-6-yl)methyl)-6-methoxynicotinamide] were, in that order, 10 to 50 nM and at most 10 nM.
Turning to `CC(C)(O)COc1cc(-c2cnc(N3C4CC5CC3CC(O)(C5)C4)cn2)c2c(C#N)cnn2c1` [Example 157, 4-(5-((1R,3S,5s,7s)-5-hydroxy-2-azaadamantan-2-yl)pyrazin-2-yl)-6-(2-hydroxy-2-methylpropoxy)pyrazolo[1,5-a]pyridine-3-carbonitrile], the GI50 on BAF3-KIF5B-RET cells is over 100 nM. Besides, the IC50 at human RET kinase was 10 to 50 nM.
`Cn1cc(-c2cc(-c3ccc(N4C[C@@H]5C[C@@](O)(Cc6ccccn6)C[C@@H]5C4)nc3)c3c(C#N)cnn3c2)cn1` [Example 158, 4-(6-((3aR,5r,6aS)-5-hydroxy-5-(pyridin-2-ylmethyl)hexahydrocyclopenta[c]pyrrol-2(1H)-yl)pyridin-3-yl)-6-(1-methyl-1H-pyrazol-4-yl)pyrazolo[1,5-a]pyridine-3-carbonitrile]: at BAF3-KIF5B-RET cells, the GI50 was in the range of 10 to 50 nM. The IC50 on human RET kinase was at most 10 nM.
Consider `COc1ccc(C(=O)N[C@@H]2C[C@@H]3CN(c4ccc(-c5cc(OCC(C)(C)O)cn6ncc(C#N)c56)cn4)C[C@@H]3C2)cn1` [Example 159, N-((3aR,5r,6aS)-2-(5-(3-cyano-6-(2-hydroxy-2-methylpropoxy)pyrazolo[1,5-a]pyridin-4-yl)pyridin-2-yl)octahydrocyclopenta[c]pyrrol-5-yl)-6-methoxynicotinamide], for which the GI50 on BAF3-KIF5B-RET cells is 10 to 50 nM. This molecule also showed an IC50 at human RET kinase of 10 to 50 nM.
Turning to `CC(C)(O)COc1cc(-c2cnc(N3C4CC5CC3CC(NC=O)(C5)C4)cn2)c2c(C#N)cnn2c1` [Example 160, N-((1R,3S,5s,7s)-2-(5-(3-cyano-6-(2-hydroxy-2-methylpropoxy)pyrazolo[1,5-a]pyridin-4-yl)pyrazin-2-yl)-2-azaadamantan-5-yl)formamide], the GI50 on BAF3-KIF5B-RET cells was over 100 nM. Further, the IC50 on human RET kinase was in the range of 10 to 50 nM.
For the molecule `CCOc1cc(-c2cnc(N3C4CC5CC3CC(NC=O)(C5)C4)cn2)c2c(C#N)cnn2c1` [Example 161, N-((1R,3S,5s,7s)-2-(5-(3-cyano-6-ethoxypyrazolo[1,5-a]pyridin-4-yl)pyrazin-2-yl)-2-azaadamantan-5-yl)formamide], the GI50 on BAF3-KIF5B-RET cells was over 100 nM. The same molecule showed an IC50 against human RET kinase of at most 10 nM.
For `CC(C)(O)COc1cc(-c2cnc(N3C4CC5CC3CC(N)(C5)C4)cn2)c2c(C#N)cnn2c1` [Example 162, 4-(5-((1R,3S,5s,7s)-5-amino-2-azaadamantan-2-yl)pyrazin-2-yl)-6-(2-hydroxy-2-methylpropoxy)pyrazolo[1,5-a]pyridine-3-carbonitrile], the GI50 at BAF3-KIF5B-RET cells is over 100 nM. Also, at human RET kinase, the IC50 lay in the range of 10 to 50 nM.
As to `CCOc1cc(-c2cnc(N3C4CC5CC3CC(N)(C5)C4)cn2)c2c(C#N)cnn2c1` [Example 163, 4-(5-((1R,3S,5s,7s)-5-amino-2-azaadamantan-2-yl)pyrazin-2-yl)-6-ethoxypyrazolo[1,5-a]pyridine-3-carbonitrile], the GI50 at BAF3-KIF5B-RET cells is over 100 nM. Besides, the IC50 at human RET kinase was 10 to 50 nM.
With `CC(C)(O)COc1cc(-c2cnc(N3C4CC5CC3CC(NC(=O)c3ncccc3Cl)(C5)C4)cn2)c2c(C#N)cnn2c1` [Example 164, 3-chloro-N-((1R,3S,5s,7s)-2-(5-(3-cyano-6-(2-hydroxy-2-methylpropoxy)pyrazolo[1,5-a]pyridin-4-yl)pyrazin-2-yl)-2-azaadamantan-5-yl)picolinamide], the GI50 on BAF3-KIF5B-RET cells was at most 10 nM. In addition, the IC50 on human RET kinase is at most 10 nM.
As for `COc1ccc(C(=O)NC23CC4CC(C2)N(c2cnc(-c5cc(-c6cnn(C)c6)cn6ncc(C#N)c56)cn2)C(C4)C3)cn1` [Example 165, N-((1R,3S,5s,7s)-2-(5-(3-cyano-6-(1-methyl-1H-pyrazol-4-yl)pyrazolo[1,5-a]pyridin-4-yl)pyrazin-2-yl)-2-azaadamantan-5-yl)-6-methoxynicotinamide], the GI50 at BAF3-KIF5B-RET cells was at most 10 nM. The same molecule gave an IC50 against human RET kinase of at most 10 nM.
